Entries after “also recorded” stand apart in the source; their conditions may differ. Where two headings read alike, the source gives them in different places.

Series [1] deals with human PBMCs co-cultured with OVCAR8 cells. The series is described as follows: Co-culture of OVCAR8 cells and stimulated human PBMCs, 1:10 OVCAR8:PBMC ratio. The series is classed as cell-based. The settings on record: for Immunosuppressive effect (reduction in TNFα/cytokines) compared with controls rPD-L1 and MN_Null: 1:10 OVCAR8:PBMC co-culture, FIG. 10D; for TNFα levels / IL-2 levels: 1:10 OVCAR8:PBMC, 24 hours, vs untreated co-culture control; for TNFα levels: ELISA, FIG. 10C; for IL-2 levels: FIG. 10B. As to the method:
For this model, PBMCs and cancer cells were both stimulated prior to co-culture to promote expression of PD-1 and PD-L1, respectively.
OVCAR8 cells, generously provided by the Gottesman Lab (National Institutes of Health, Bethesda, MD, USA), and MDA-MB-231 cells (American Type Culture Collection, Rockville, MD, USA) were cultured in Gibco RPMI 1640 media (ThermoFisher Scientific, Cat. No. 11-875-093) supplemented with 10% Gibco fetal bovine serum (ThermoFisher Scientific, Cat. No. 10437028), and 1% penicillin/streptomycin (10,000 U/mL pen, 10 mg/mL strcp) from MilliporeSigma (Burlington, MA, USA, Cat. No. P4333). Cells were cultured at 37° C. and 5% CO2. Passage number was kept below 3 for co-culture assay. Human peripheral blood mononuclear cells were purchased frozen from […] PBMCs were thawed according to manufacturer's instructions one day before co-culture and cultured in the same media and conditions as cancer cell lines.
The next day, cells were stimulated with 100 ng/mL IFNγ and two vials of human PBMCs were thawed. On Day 3, concentrations of PBMCs and OVCAR8 cells (harvested from a control well) were measured using the QuadCount Automated Cell Counter. The concentration of PBMCs required for a 1:10 OVCAR8:PBMC ratio was calculated from the OVCAR8 concentration. PBMCs were plated on a separate 24-well plate (1 mL/well) and stimulated with 5 μg/mL of anti-CD3 and 5 μg/mL of anti-CD28 for 30 minutes before drug treatment. […] After 30 minutes, media was removed from OVCAR8 wells without treatment, and replaced with 1 mL of treated PBMCs. After 24 hours, the supernatants were collected from each well, and centrifuged at 10,000×g for 5 minutes to remove any remaining cells.
Briefly, samples from co-culture experiments with excess OVCAR8 ratios were diluted 1:10 in assay buffer, and samples from co-culture experiments with excess PBMC ratios were diluted 1:5 in assay buffer. Next, 10 μL of the diluted samples were mixed with 10 μL of an IL-2 antibody-oligonucleotide conjugate mixture and added to a 96-well working plate. Samples with excess OVCAR8 ratios were allowed to incubate overnight at 4° C. Samples with excess PBMCs were allowed to incubate for 1 hour at room temperature. Next, 80 μL of qPCR reaction mixture containing master mix and DNA ligase was added to each well. The plate was centrifuged at 2,500×g for 2 minutes. Samples were then added in triplicate (20 μL/well) to a 96-well PCR plate (ThermoFisher Scientific). PCR was run according to manufacturer's instructions using the QuantStudio 7 Pro Real-Time PCR System equipped with a 96-well, 0.2 mL block from ThermoFisher Scientific.
Remaining samples from experiments with excess PBMC ratios were analyzed using TNFα (Cat. No. 430204) ELISA MAX Deluxe Sets (BioLegend, San Diego, CA, USA) according to manufacturer's instructions. Briefly, 96-well Nunc™ MaxiSorp™ ELISA Plates (BioLegend, Cat. No. 423501) were coated with capture antibodies for TNFα and incubated overnight at 4° C. The next day, the plate was washed 4× with 1×PBS+0.05% Tween-20 (PBS-T). To block non-specific binding, 200 μL of assay dilutant buffer was added to each well and the plate was incubated at room temperature for 1 hour on a shaker. The plate was washed as before, and 100 μL of the samples or standards were added to each well in triplicate and incubated at room temperature for 2 hours on a shaker. The plate was washed 4× and 100 μL of detection antibody for TNFα was added to each well, and the plate was incubated at room temperature for 1 hour on a shaker. The plate was washed 4× and 100 μL of Avidin-HRP was added to each well, and the plate was incubated at room temperature for 30 minutes on a shaker.
(In an ELISA, binding on a coated surface is turned into a signal by an enzyme label.)

For series [2] the following is noted: human serum diluted 1:4 in RPMI, ESI-MS, 0, 6, 24, 48 hours. As to the method: Angiotensin I was spiked in and used for normalization.
Human serum was diluted 1:4 in Gibco RPMI 1640 media (ThermoFisher Scientific, Waltham, MA, USA, Cat. No. 11-875-093) for a total of 1 mL and incubated at 37° C. for 15 minutes prior to time course. Next, 1 μL of the peptide stock was added to warmed serum for a final concentration of […] in the master mix. The rest of the time course was performed at room temperature. For each time point, aliquots of 100 μL were removed from the master mix and added to 200 μL of 3% trifluoroacetic acid. Samples were incubated on ice for 15 minutes before centrifugation at 16,000×g for 2.5 minutes. Supernatants were transferred to a clean tube and prepared for desalting via C18 column by adding 100 μL of sample buffer (20% acetonitrile, 2% trifluoroacetic acid) to supernatants before storage at—20° C. overnight. Samples were then processed through Pierce C18 spin columns (ThermoFisher Scientific, Cat. No. 89870) according to the manufacturer's instructions. […]
For ESI-MS analysis, serum stability samples were run on an Orbitrap Exploris 480 (ThermoFisher Scientific). […] ThermoFisher's Xcalibur 4.0 Data System was used for peptide quantification. […] The samples were batch reprocessed for quantification via peak area. Peptide abundances were normalized based on Angiotensin I abundance and quantified relative to initial abundance.

The conditions of series [3]: human serum diluted 1:4 in RPMI, MALDI-TOF-MS, up to 6 hours. As to the method: Human serum was diluted 1:4 in Gibco RPMI 1640 media (ThermoFisher Scientific, Waltham, MA, USA, Cat. No. 11-875-093) for a total of 1 mL and incubated at 37° C. for 15 minutes prior to time course. Next, 1 μL of the peptide stock was added to warmed serum for a final concentration of […] in the master mix. The rest of the time course was performed at room temperature. For each time point, aliquots of 100 μL were removed from the master mix and added to 200 μL of 3% trifluoroacetic acid. Samples were incubated on ice for 15 minutes before centrifugation at 16,000×g for 2.5 minutes. Supernatants were transferred to a clean tube and prepared for desalting via C18 column by adding 100 μL of sample buffer (20% acetonitrile, 2% trifluoroacetic acid) to supernatants before storage at—20° C. overnight. Samples were then processed through Pierce C18 spin columns (ThermoFisher Scientific, Cat. No. 89870) according to the manufacturer's instructions. Desalted samples were dried under nitrogen and stored at −20° C. until mass spectrometry analysis.
For MALDI-TOF-MS analysis, serum stability samples were reconstituted in 200 μL of 0.1% formic acid. Samples were then diluted 1:10 in a MALDI matrix containing a 50 fmol/μL solution of Angiotensin I as a control. […]

On to `CC[C@H](C)[C@@H]1NC(=O)[C@H](CCSC)NC(=O)[C@H](C)NC(=O)[C@H](CCCNC(=N)N)NC(=O)[C@@H](N)CSSC[C@@H](C(=O)O)NC(=O)[C@H]([C@@H](C)CC)NC(=O)[C@H](CCCNC(=N)N)N(C)C(=O)[C@H](CCCCN)NC(=O)[C@H](Cc2ccc(O)cc2)NC(=O)[C@H](CC(=O)O)NC(=O)[C@H](C)NC(=O)CNC(=O)CNC(=O)[C@H](Cc2ccc(O)cc2)NC(=O)[C@H](CO)NC1=O` [SEQ ID NO. 5, CRAMISYGGADYKXIC], for which, in series [1] (listed as MN 1.4), the “Immunosuppressive effect (reduction in TNFα/cytokines) compared with controls rPD-L1 and MN_Null” value is reported as “less potent than recombinant PD-L1”; the TNFα levels entry is recorded as “reduced in a dose-dependent manner”; the IL-2 levels result is given as “reduced in a dose-dependent manner”. Further, in series [1] (listed as MN1.4), the “Immunosuppressive effect (reduction in TNFα/cytokines) compared with controls rPD-L1 and MN_Null” value was “not a significant difference in cytokine levels between the MN1.4 and rPD-L1 treatment groups; also recorded: recapitulated the biological effects of full-length PD-L1; also recorded: the same reduction in TNFα as rPD-L1”; the TNFα levels result was “same pattern of T cell suppression was observed; also recorded: significantly decreased; also recorded: shown to decrease IL-2 and TNFα secretion; also recorded: A reduction in this cytokine was also observed”; the IL-2 levels result is “same pattern of T cell suppression was observed; also recorded: significantly decreased; also recorded: shown to decrease IL-2 and TNFα secretion; also recorded: A dose-dependent reduction in IL-2 was observed”. For the same molecule, in series [2], the Degradation in serum result is reported as “not significantly degraded at 48 hours”. The Degradation in serum entry in series [3] is listed as “still present after 6 hours in serum without significant degradation”.

The values above are taken from patent US20240327493A1 (GEORGE MASON UNIVERSITY, priority 2023, published 2024).
